Test results as given in US20220267390A1, “MPS MODIFIED PEPTIDES AND USE THEREOF” (The Regents of the University of California, priority 2019, published 2022).
Where no end group is shown, it is not given here.

Experiments:
PIP3 = assay: PI(3,4,5)P3 quantitation (PIP3 Mass ELISA) in IPF fibroblasts; format: cell-based, human; settings: MPS-treated IPF fibroblasts vs PBS
Source text: FIGS. 10A-10C: (FIG. 10A) The PIP2-binding motif (SEQ ID NO: 12) on the ? hosphorylation ? ite ? omain (PSD) of MARCKS. FIG. 10A discloses the MH domain as SEQ ID NO: 86). (FIG. 10B) Biolayer interferometry analysis of the binding of the MPS peptide to biotin-labeled PIP2. (FIG. 10C) PIP3 levels in IPF fibroblast cells with PBS or MPS treatment. * p<0.05 versus PBS (n=3).
Cells were harvested and precipitated by trichloroacetic acid. PIP3 lipids were extracted twice from the trichloroacetic acid precipitated fraction by methanol: chloroform (2:1). After acidification, organic-phase lipids were used for PIP3 quantitation, based on the protocol for the PIP3 Mass ELISA kit (Echelon Biosciences, Salt Lake, Utah). Briefly, the lipid extract from cultured cells was mixed with the PIP3-specific detector protein, which was then incubated in a PIP3-coated microplate for competitive binding. After several washes, the microplate was then incubated with a HRP-linked secondary detector and tetramethylbenzidine substrate for color development. To stop further color development, 2M H2SO4 solution was then added. Microplates were read at an absorbance wavelength of 450 nm. A series of different dilutions of PIP3 standards were used for establishing a standard curve for each reaction. Cellular PIP3 amounts could be estimated by comparing the absorbance in the wells with the values in the standard curve. […]

[1] = tested on: normal human epithelial cells; settings: earlier work of Applicant (refs 14, 16); cited from earlier work
primary IPF fibroblasts = assay: Combination of nintedanib and MPS peptide, cell viability by MTT, Chou and Talalay CI; format: cell-based, human; settings: nintedanib 62.5-2000 nM and/or MPS 6.25-200 μM, 72 hours
Method: FIGS. 12A-12E: (FIGS. 12A-12B) Combinatorial effect of MPS peptide with nintedanib on fibroblasts isolated from two IPF patients. Cells were treated with various closes of nintedanib (62.5-2000 nM) and/or MPS peptide (6.25-200 μM) for 72 hours, respectively. After single ([…]) or combined ([…]) treatment, cell viability was determined by MTT assays. (FIG. 12C) The Chou and Talalay CI (combination index) method was utilized to evaluate the therapeutic interactions between nintedanib and MPS peptide using the Calcusyn software. Gray line, additive effect of the combination of MPS peptide and the drug is represented at CI=1. (FIG. 12D) Cells were individually treated with 1 μM nintedanib, 100 μM MPS peptide or combinations of 1 μM nintedanib and 100 μM MPS peptide. After 48 hours, cell viability was determined by the trypan blue exclusion assay (n+3; *, p<0.05). […] Molecular basis of MPS peptide and its potential for increasing nintedanib efficacy. […] A kinetic assay confirmed that this peptide binds PIP2 with a dissociation constant of 17.64 nM (FIG. 10B). As expected, a decrease of PIP3 pools in whole cell lysates of MPS-treated IPF fibroblasts was observed (FIG. 10C), supporting the notion that MPS peptide is able to inhibit AKT activation through trapping PIP2. […]

In the case of KKKKKRFSFKKSFKLSGFSFKKNKK [MPS peptide], the “PIP3 pools in whole cell lysates” value (PIP3) is listed as “decrease”, the “cytotoxic effect on normal human epithelial cells” value [1] is listed as “no cytotoxic effect” and the Cell viability (primary IPF fibroblasts) is listed as “decreased”.
